Legend:
[1] = tested on: SMN2 CJ mRNA; assay: Gene panel canonical junction qPCR assay, SMN2; type: cell-based; conditions: Homo sapiens, larger gene panel, read-out: SMN2 IC50 (decrease in CJ mRNA levels)
Description: (§1) Compounds described herein were used to modulate RNA transcript abundance in cells. The expression of a target mRNA was measured by detecting the formation of an exon-exon junction in the canonical transcript (CJ). A compound mediated exon-inclusion event was detected by observing an increase in formation of a new junction with an alternative exon (AJ). Real-time qPCR assays were used to detect these splicing switches and interrogate the potency of various compounds towards different target genes. A high-throughput real time quantitative PCR (RT-qPCR) assay was developed to measure these two isoforms of the mRNA (CJ and AJ) for exemplary genes, such as HTT, SMN2, and MYB, together with a control housekeeping gene, GAPDH or GUSB or PPIA, used for normalization. Briefly, the A673 or K562 cell line was treated with various compounds described herein (e.g., compounds of Formula (I)). After treatment, the levels of the HTT, MYB, or SMN2 mRNA targets were determined from each sample of cell lysate by cDNA synthesis followed by qPCR.
(§2) The A673 cell line was cultured in DMEM with 10% FBS. Cells were diluted with full growth media and plated in a 96-well plate (15,000 cells in 100 ul media per well). The plate was incubated at 37° C. with 5% CO2 for 24 hours to allow cells to adhere. An 11-point 3-fold serial dilution of the compounds was made in DMSO then diluted in media in an intermediate plate. Compounds were transferred from the intermediate plate to the cell plate with the top dose at a final concentration of 10 uM in the well. Final DMSO concentration was kept at or below 0.25%. The cell plate was returned to the incubator at 37° C. with 5% CO2 for an additional 24 hours.
(§3) The K562 cell line was cultured in IMDM with 10% FBS. For K562, cells were diluted with full growth media and plated in either a 96-well plate (50,000 cells in 50 uL media per well) or a 384-well plate (8,000-40,000 cells in 45 uL media per well). An 11-point 3-fold serial dilution of the compounds were made in DMSO then diluted in media in an intermediate plate. Compound was transferred from the intermediate plate to the cell plate with the top dose at a final concentration of 10 uM in the well. Final DMSO concentration was kept at or below 0.25%. Final volume was 100 uL for 96-well plate and 50 uL for 384-well plate. The cell plate was then placed in an incubator at 37° C. with 5% CO2 for 24 hours.
(§4) The data analysis was performed by first determining the ΔCt vs the housekeeper gene. This ΔCt was then normalized against the DMSO control (ΔΔCt) and converted to RQ (relative quantification) using the 2^(−ΔΔCt) equation. The RQ were then converted to a percentage response by arbitrarily setting an assay window of 3.5 and 4.0 ΔCt for HTT-CJ and MYB-CJ respectively and an assay window of 9 and 3 ΔCt for HTT-AJ and MYB-AJ in 96 well format (50,000 K562 cells/well and 15,000 A673 cells per well) and an assay window of 3 and 4 ΔCt for HTT-CJ and MYB-CJ respectively and an assay window of 5 and 3 ΔCt for HTT-AJ and MYB-AJ respectively in 384 well format (8,000 K562 cells/well example). […] The percentage response was then fitted to the 4 parametric logistic equation to evaluate the concentration dependence of compound treatment. The increase in AJ mRNA is reported as AC50 (compound concentration having […] in AJ increase) while the decrease in CJ mRNA levels is reported as IC50 (compound concentration having 50% response in CJ decrease).
(§5) Additional studies were carried out for a larger panel of genes using the protocol provided above. The junction between flanking upstream and downstream exons was used to design canonical junction qPCR assays. At least one of the forward primer, reverse primer or the CY5-labeled 5′ nuclease probe (with 3′ quencher such as ZEN/Iowa Black FQ) was designed to overlap with the exon junction to capture the CJ mRNA transcript. […]

[2] = tested on: HTT mRNA; assay: Splicing RT-qPCR assay, HTT canonical (CJ) and alternative (AJ) junction mRNA; type: cell-based; conditions: Homo sapiens, A673 or K562 cells, 24 hours treatment; for IC50: decrease in CJ mRNA; for AC50: increase in AJ mRNA
Description: as §1
(§6) • Cells-to-CT 1-step kit: ThermoFisher A25602, Cells-to-CT lysis reagent: ThermoFisher 4391851C, TaqMan™ Fast Virus 1-Step Master Mix: ThermoFisher 4444436 • GAPDH: VIC-PL, ThermoFisher 4326317E (Assay: Hs99999905_ml)—used for K562/suspension cell lines • GUSB: VIC-PL, ThermoFisher 4326320E (Assay: Hs99999908_ml)—used for K562/suspension cell lines • PPIA: VIC-PL, ThermoFisher 4326316E (Assay: Hs99999904_ml)—used for A673/adherent cell lines
as §2, §3
(§7) The cells were then gently washed with 50 uL-100 uL cold PBS before proceeding to addition of lysis buffer. 30 uL-50 μL of room temperature lysis buffer with DNAse I (and optionally RNAsin) was added to each well. Cells were shaken/mixed thoroughly at room temperature for 5-10 minutes for lysis to take place and then 3 uL-5 μL of room temperature stop solution was added and wells were shaken/mixed again. After 2-5 minutes, the cell lysate plate was transferred to ice for RT-qPCR reaction setup. The lysates could also be frozen at −80° C. for later use.
(§8) In some cases, a direct lysis buffer was used. An appropriate volume of 3×lysis buffer (10 mM Tris, 150 mM NaCl, 1.5%-2.5% Igepal and 0.1-1 U/uL RNAsin, pH 7.4) was directly added to either K562 or A673 cells in media and mixed by pipetting 3 times. The plates were then incubated at room temperature with shaking/rocking for 20-50 minutes to allow for lysis to take place. After this time, the cell lysate plate was transferred to ice to set up for the RT-qPCR reactions. The lysates could also be frozen at −80° C. for later use. […]

[3] = tested on: HTT CJ mRNA; assay: Gene panel canonical junction qPCR assay, HTT; type: cell-based; conditions: Homo sapiens, larger gene panel, read-out: HTT IC50 (decrease in CJ mRNA levels)
Description: as §1, §2, §3, §4, §5

[4] = tested on: HiBiT-tagged Target C protein in K562 cells; assay: HiBiT protein abundance assay, Target C; type: cell-based, human; conditions: HiBiT-modified K562 cells, 24 hours, luminescence
Description: (§9) Compounds described herein were used to screen for effects on quantitative protein abundance using a HiBit assay system (Promega). Quantitative protein abundance was determined by measuring the protein levels of HiBit-tagged protein targets expressed in cell culture via luminescence using the Nano-Glo HiBiT Lytic Detection System, which uses a split complementation assay format to reconstitute NanoBiT enzyme to generate a luminescent signal. A protein abundance assay was developed such that endogenous protein targets could be modified with the HiBiT peptide tag and their abundance could be assessed after compound treatment. Briefly, K562 cell lines containing a HiBiT-modification were treated with various compounds described herein (e.g., compounds of Formulas (I), (II), or (III)). After treatment for 24 hours, the protein abundance of a specific target was determined by measuring luminescence.
(§10) • Promega Nano-Glo HiBiT Lytic Detection System (cat #N3030) • Corning 384-well TC-treated microplates (cat #3570) • Synthego Engineered Cells Knock-In Clones
(§11) Cells were maintained in IMDM with 10% FBS. Before the assay, cells were diluted with […] growth media (IMDM+1% FBS media) and were seeded in a 384-well plate at a density of 10000 cells/well (for each cell line listed in Table 5). Each compound was prepared as a 10-point 3-fold serial dilution in DMSO with the top dose at a final concentration of 10 μM in the well. Unmodified K562 cells were added at the previously specified density with DMSO to serve as an assay baseline and positive control (PC) and DMSO only with the respective modified cell lines was added to the negative control (NC) columns. Final DMSO concentration was kept at or below 0.25%. Treated cell plates were placed in an incubator at 37° C. with 5% CO2 for 24 hours. After 24 hours, 25 μL of Complete HiBit Lytic reagent was added to each well at room temperature (e.g. one plate requiring 10 mL Lytic Buffer, 100 μL LgBiT Protein, 200 μL Lytic Substrate), shaken for 5 minutes at 600 RPM, then left to sit for 10 minutes for signal to stabilize before reading on a Spark Cyto plate reader (Tecan) with a 500 ms measurement time.
(§12) To determine compound effects on protein abundance of each target in Table 5, the percent response for each respective cell line was calculated at each compound concentration as follows:
(§13) For the normalized response at each concentration, a four-parameter logistical regression was fit to the data and the response was interpolated at the 50% value to determine a concentration for protein abundance at 50% (IC50) the untreated control.

[5] = tested on: HiBiT-tagged MYB protein in K562 cells; assay: HiBiT protein abundance assay, MYB; type: cell-based, human; conditions: HiBiT-modified K562 cells, 24 hours, luminescence
Description: as §9, §10, §11, §12, §13

[6] = tested on: HiBiT-tagged HTT protein in K562 cells; assay: HiBiT protein abundance assay, HTT; type: cell-based, human; conditions: HiBiT-modified K562 cells, 24 hours, luminescence
Description: as §9, §10, §11, §12, §13

[7] = Cell Titer Glo 2.0 cell viability assay; conditions: human, K562 cells
[8] = tested on: Target C CJ mRNA; assay: Gene panel canonical junction qPCR assay, Target C; type: cell-based; conditions: Homo sapiens, larger gene panel, read-out: Target C IC50 (decrease in CJ mRNA levels)
Description: as §1, §2, §3, §4, §5

[9] = tested on: MYB CJ mRNA; assay: Gene panel canonical junction qPCR assay, MYB; type: cell-based; conditions: Homo sapiens, larger gene panel, read-out: MYB IC50 (decrease in CJ mRNA levels)
Description: as §1, §2, §3, §4, §5

[10] = tested on: MYB mRNA; assay: Splicing RT-qPCR assay, MYB canonical (CJ) and alternative (AJ) junction mRNA; type: cell-based; conditions: Homo sapiens, A673 or K562 cells, 24 hours treatment; for IC50: decrease in CJ mRNA; for AC50: increase in AJ mRNA
Description: as §1, §6, §2, §3, §7, §8

| IC50 [1] [nM] | IC50 [2] [nM] | IC50 [3] [nM] | IC50 [4] [nM] | IC50 [5] [nM] | IC50 [6] [nM] | IC50 [8] [nM] | IC50 [9] [nM] | IC50 [10] [nM] | SMILES | AC50 [2] [nM] | GI50 at 72 h [7] [nM] | AC50 [10] [nM] |
| --- | --- | --- | --- | --- | --- | --- | --- | --- | --- | --- | --- | --- |
| 1000 to 10000 | 1000 to 10000 | 1000 to 10000 | – | – | – | – | – | – | CN1CCN(c2nc3ncn(-c4ccc5nn(C)cc5c4)c(=O)c3s2)CC1 [Compound 182, 6-(2-methyl-2H-indazol-5-yl)-2-(4-methylpiperazin-1-yl)thiazolo[4,5-d]pyrimidin-7(6H)-one] | 1000 to 10000 | – | – |
| – | – | – | 1000 to 10000 | 1000 to 10000 | 1000 to 10000 | – | – | – | Cc1c(O)c(-c2nc3c(=O)n(C4CCNCC4)cnc3s2)cc2cn(C)nc12 [Compound 283] | – | 1000 to 10000 | – |
| – | – | – | 100 to 1000 | 100 to 1000 | 100 to 1000 | – | – | – | Cc1c(O)c(-c2nc3ncn(C4CCNCC4)c(=O)c3s2)cc2cn(C)nc12 [Compound 336, 2-(6-hydroxy-2,7-dimethylindazol-5-yl)-6-(piperidin-4-yl)-[1,3]thiazolo[4,5-d]pyrimidin-7-one] | – | 1000 to 10000 | – |
| – | – | – | > 10000 | > 10000 | > 10000 | – | – | – | COc1c(-c2nc3ncn(C4CCNCC4)c(=O)c3s2)cc2cn(C)nc2c1C [Compound 335, 2-(6-methoxy-2,7-dimethylindazol-5-yl)-6-(piperidin-4-yl)-[1,3]thiazolo[4,5-d]pyrimidin-7-one] | – | > 10000 | – |
| 100 to 1000 | 100 to 1000 | 100 to 1000 | – | – | – | 100 to 1000 | 100 to 1000 | 100 to 1000 | Cc1cn2cc(-c3cc4ncn([C@H]5CCNC[C@@H]5O)c(=O)c4s3)cc(F)c2n1 [Compound 280] | 100 to 1000 | – | 100 to 1000 |
| 1000 to 10000 | > 10000 | > 10000 | – | – | – | – | > 10000 | > 10000 | Cc1cn2cc(-c3cn4c(=O)cc(N5CCN(C)CC5)nc4s3)cc(F)c2n1 [Compound 184] | > 10000 | – | 1000 to 10000 |
| < 100 | 100 to 1000 | 100 to 1000 | – | – | – | 1000 to 10000 | 100 to 1000 | 100 to 1000 | Cc1cc(-c2cc3ccn(C4CCN(C)CC4)c(=O)c3s2)cc2cn(C)nc12 [Compound 807] | 100 to 1000 | 1000 to 10000 | 100 to 1000 |
| 1000 to 10000 | 1000 to 10000 | 1000 to 10000 | – | – | – | 1000 to 10000 | 1000 to 10000 | 1000 to 10000 | Cc1cn2cc(-c3cc4ncn([C@H]5CNCC[C@@H]5O)c(=O)c4s3)cc(F)c2n1 (relative stereo) [Compound 281, 6-{8-fluoro-2-methylimidazo[1,2-a]pyridin-6-yl}-3-[(trans)-4-hydroxypiperidin-3-yl]thieno[3,2-d]pyrimidin-4-one] | 1000 to 10000 | – | 1000 to 10000 |
| – | – | – | > 10000 | > 10000 | > 10000 | – | – | – | O=c1c2sc(-c3ccc(-c4cn[nH]c4)cc3O)nc2ncn1C1CCNCC1 [Compound 334] | – | > 10000 | – |
| 1000 to 10000 | > 10000 | > 10000 | – | – | – | > 10000 | > 10000 | > 10000 | Cc1cc(-c2cn3c(=O)cc(N4CCN(C)CC4)nc3s2)cc2cn(C)nc12 [Compound 183, 2-(2,7-dimethyl-2H-indazol-5-yl)-7-(4-methylpiperazin-1-yl)-5H-thiazolo[3,2-a]pyrimidin-5-one] | > 10000 | – | > 10000 |
